Laboratory results reported in patent US12667686B2, “Nitric oxide generating systems” (NOTA Laboratories, LLC, priority 2019, dated 2026).

Assay: GSNO stability as a function of pH
Type: physicochemical
Settings: alkaline conditions
Protocol: The stability of the formulations was tested via UV/Vis analysis and/or via the electrochemical NOA.

pH above which GSNO instability and hence NO generation begins to increase: above 8.5
Compound: N[C@@H](CCC(=O)N[C@@H](CSN=O)C(=O)NCC(=O)O)C(=O)O [GSNO, S-nitrosoglutathione]
